# Measurements as given in BindingDB's records for doi:10.7270/Q2959G44 (Burnham Center For Chemical Genomics, 2012).
# Target: Dual specificity protein phosphatase 3 (Homo sapiens, UniProt P51452)
# Experiment: VHR phosphatase inhibition, dose response, selectivity assay for STEP inhibitor project, biochemical (AID 602374)
# Chain of Dual specificity protein phosphatase 3 (P51452 whole entry): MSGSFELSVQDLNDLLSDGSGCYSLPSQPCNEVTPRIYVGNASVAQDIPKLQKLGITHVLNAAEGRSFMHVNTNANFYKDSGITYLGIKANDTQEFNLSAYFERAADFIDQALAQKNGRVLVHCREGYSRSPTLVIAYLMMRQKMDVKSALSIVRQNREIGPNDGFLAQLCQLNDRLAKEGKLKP
row,Structure (SMILES),IC50 [µM]
1,S=C1N=C(C23CC4CC(CC(C4)C2)C3)CC(c2ccc3c(c2)OCO3)N1 (stereo not given),3.52
2,"CCOc1cc(CN=Nc2nc(O)c(CC(=O)O)s2)ccc1OCc1ccc(Cl)cc1Cl [2-[2-[(N''E)-N''-[4-(2,4-dichlorobenzyl)oxy-3-ethoxy-benzylidene]hydrazino]-4-keto-2-thiazolin-5-yl]acetic acid]",2.42
3,"C=c1c(O)c(O)c(=C2C(=O)C(=O)C(C)C(=O)C2=O)c(O)c1O (stereo not given) [(3E)-5-hydroxy-6-methyl-3-(2,3,5-trihydroxy-4-methyl-6-oxo-1-cyclohexa-2,4-dienylidene)cyclohex-5-ene-1,2,4-trione]",1.27
4,"O=C1C(=O)N(CCCO)C(c2ccc(Br)cc2)C1C(=O)c1ccc(Br)cc1 (stereo not given) [(4E)-5-(4-bromophenyl)-4-[(4-bromophenyl)-oxidanyl-methylidene]-1-(3-oxidanylpropyl)pyrrolidine-2,3-dione]",73.4
5,S=C1N=C2C(=C3SCCS3)CCCC2C(c2ccccc2)N1 (stereo not given) [MLS000516376],1.23
6,CCN(CC)P(=O)(NC(=O)C(Cl)(Cl)Cl)N(CC)CC [MLS000564159],3.25
7,CSc1ccc(CN=Nc2ccc(S(=O)(=O)Nc3ccccc3C(=O)O)cc2[N+](=O)[O-])cc1 [MLS002245633],1.27
8,O=C(N/N=C/C1C=CC=CC1=O)c1cccc([N+](=O)[O-])c1 (stereo not given) [MLS002667988],3.13
9,COc1ccc(OC)c(-n2c(O)c3o[nH]c(-c4ccccc4Cl)c-3c2=O)c1 [SMR000046218],0.833
10,"COc1ccc(CN=Nc2nc(O)c(CC(=O)O)s2)cc1OCc1ccc(Cl)cc1Cl [[2-({3-[(2,4-dichlorobenzyl)oxy]-4-methoxybenzylidene}hydrazono)-4-oxo-1,3-thiazolidin-5-yl]acetic acid]",4.79
